Experiment: DPPH free radical elimination test
Assay type: biochemical
Conditions: 10 mg/ml sample, 0.1 mM DPPH, room temperature 30 minutes, OD 517 nm
Experimental: Trial (A): DPPH Free Radical Elimination Test Referring to TABLE 1, there are six groups (A0) to (A5) to test, wherein the group (A0) comprising 10 mg/ml of ascorbic acid, and other five groups comprising extract of a dry Andrographis paniculata sample, a dry Acanthopanax senticosus sample or a combination of dry Andrographis paniculata sample and dry Acanthopanax senticosus sample in various weight ratios respectively. The group (A1) is a liquid extract obtained by extracting 4 kg of dry Andrographis paniculata sample with 1 liter of 95% ethanol. The group (A2) is a liquid extract obtained by extracting 4 kg of dry Acanthopanax senticosus sample with 1 liter of 95% ethanol. The group (A3) is a liquid extract obtained by extracting 4 kg of dry Andrographis paniculata sample and dry Acanthopanax senticosus sample in a weight ratio of 1:1 with 1 liter of 95% ethanol. The group (A4) is a liquid extract obtained by extracting 4 kg of dry Andrographis paniculata and dry Acanthopanax senticosus in a weight ratio of 1:2 with 1 liter of 95% ethanol. The group (A5) is a liquid extract obtained by extracting 4 kg of dry Andrographis paniculata and dry Acanthopanax senticosus in a weight ratio of 1:3 with 1 liter of 95% ethanol. […] The 6 samples are analyzed in the DPPH free radical elimination ability. […] DPPH elimination rates of each sample are further calculated by using Formula I. [formula]

O=C1O[C@H]([C@@H](O)CO)C(O)=C1O [ascorbic acid]
Percentage of DPPH elimination (%): 96.4 ± 2.7%
